Measured values reported in PubChem BioAssay (NCI).
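Compound exposure: 48 hours, 5 concentrations, 96-well plates. GI50 is the concentration that inhibits growth by half. TGI marks complete inhibition of growth.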 *1 amine or outer side, *2 acyl side, *3 side chain or, on linkers, in order; H or OH if unused. Where a SMILES comes first, the peptide text is derived from it. [ ]: non-standard residue; d: D form. ξ: configuration not given here. X21 = CC[C@@H](C)C(N[*:1])C(=O)[*:2]; ξR = N=C(N)NCCCC(N)C(=O)O; ξI = CCC(C)C(N)C(=O)O; ξL = CC(C)CC(N)C(=O)O; ξK = NCCCCC(N)C(=O)O; ξV = CC(C)C(N)C(=O)O; ξA = CC(N)C(=O)O

Assays:
Assay in all cases: NCI anticancer screen, dose series, 48 h
[1] = tested on: HCC-2998 colon
[2] = tested on: KM12 colon
[3] = tested on: LOX IMVI melanoma
[4] = tested on: MDA-MB-435
[5] = tested on: NCI-H23 lung
[6] = tested on: NCI-H460 lung
[7] = tested on: OVCAR-3 ovarian
[8] = tested on: SF-295 CNS
[9] = tested on: SR leukemia
[10] = tested on: UACC-62 melanoma

NC1CCC(N[C@@H]2C[C@H]2c2ccccc2)CC1 (stereo not given in full)
GI50 [1]: > 100 µM
TGI [1]: > 100 µM
GI50 [2]: > 100 µM
TGI [2]: > 100 µM
GI50 [3]: 69.6 µM
TGI [3]: > 100 µM
GI50 [4]: 48.4 µM
TGI [4]: > 100 µM
GI50 [5]: > 100 µM
TGI [5]: > 100 µM
GI50 [6]: > 100 µM
TGI [6]: > 100 µM
GI50 [7]: > 100 µM
TGI [7]: > 100 µM
GI50 [8]: > 100 µM
TGI [8]: > 100 µM
GI50 [9]: 19.9 µM
TGI [9]: > 100 µM
GI50 [10]: 33.6 µM
TGI [10]: > 100 µM

Cc1ccc(Sc2sc(-c3ccccc3)nc2[P+](c2ccccc2)(c2ccccc2)c2ccccc2)cc1
GI50 [1]: 0.453 µM
TGI [1]: 1.63 µM
GI50 [2]: 0.314 µM
TGI [2]: 1.09 µM
GI50 [3]: 0.276 µM
TGI [3]: 0.901 µM
GI50 [4]: 0.291 µM
TGI [4]: 0.882 µM
GI50 [5]: 0.27 µM
TGI [5]: 0.811 µM
GI50 [6]: 0.314 µM
TGI [6]: 1.09 µM
GI50 [7]: 0.346 µM
TGI [7]: 1.23 µM
GI50 [8]: 0.243 µM
TGI [8]: 0.722 µM
GI50 [9]: 0.368 µM
TGI [9]: 3.77 µM
GI50 [10]: 0.317 µM
TGI [10]: 1.25 µM

C/C(=N\N=C(N)N)C(CN(C)C)C(c1ccccc1)c1c(O)c2ccccc2oc1=O (stereo not given)
TGI [1]: > 100 µM
TGI [2]: > 100 µM
TGI [3]: > 100 µM
TGI [4]: > 100 µM
TGI [5]: > 100 µM
TGI [6]: > 100 µM
TGI [7]: > 100 µM
TGI [8]: > 100 µM
TGI [9]: > 100 µM
TGI [10]: > 100 µM

N#C/C(=C\c1ccc(Br)cc1)n1nnc2ccccc21
GI50 [1]: 1.51 µM
TGI [1]: 3.34 µM
GI50 [2]: 0.512 µM
TGI [2]: 2.33 µM
GI50 [3]: 0.319 µM
TGI [3]: 1.19 µM
GI50 [4]: 0.191 µM
TGI [4]: 0.438 µM
GI50 [5]: 1.44 µM
TGI [5]: 4.2 µM
GI50 [6]: 1.68 µM
TGI [6]: 3.82 µM
GI50 [7]: 0.244 µM
TGI [7]: 0.604 µM
GI50 [8]: 1.18 µM
TGI [8]: 8.9 µM
GI50 [9]: 0.144 µM
TGI [9]: 14.6 µM
GI50 [10]: 0.358 µM
TGI [10]: 1.59 µM

O=C(CC1C=CCS1(=O)=O)NCc1ccccc1 (stereo not given)
TGI [1]: > 100 µM
TGI [2]: > 100 µM
TGI [3]: > 100 µM
TGI [4]: > 100 µM
TGI [5]: > 100 µM
TGI [6]: > 100 µM
TGI [7]: > 100 µM
TGI [8]: > 100 µM
TGI [9]: > 100 µM
TGI [10]: > 100 µM

CCC(C)C1NC(=O)C(CC(C)C)NC(=O)C(C)NC(=O)C(C(C)C)NC(=O)C(CCCCN)NC(=O)C(CC(C)C)NC(=O)C(C(C)C)NC(=O)[C@H](C)NC(=O)C(C(C)CC)NC(=O)C(CCCN=C(N)N)NC(=O)C(CCCCN)NC(=O)C(CCCN=C(N)N)NC(=O)C(CCCCN)NC(=O)C([C@H](C)CC)NC(=O)C(CCCCN)NC1=O (stereo not given in full) (cyclo(A[ξV][ξL][ξK][ξV][ξA][ξL][ξI][ξK][X21][ξK][ξR][ξK][ξR][ξI]))
GI50 [1]: 1.83 µM
TGI [1]: 4.22 µM
GI50 [2]: 1.73 µM
TGI [2]: 3.9 µM
GI50 [3]: 1.62 µM
TGI [3]: 3.03 µM
GI50 [4]: 1.51 µM
TGI [4]: 3.33 µM
GI50 [5]: 0.43 µM
TGI [5]: 2.22 µM
GI50 [6]: 1.57 µM
TGI [6]: 3.49 µM
GI50 [7]: 1.2 µM
TGI [7]: 2.87 µM
GI50 [8]: 1.04 µM
TGI [8]: 2.52 µM
GI50 [9]: 1.48 µM
TGI [9]: 4.1 µM
GI50 [10]: 1.26 µM
TGI [10]: 2.85 µM
